Each structure is given as a SMILES string. Like-named read-outs stand apart in the source and are kept apart here.

The values below come from patent publication US20250302751A1, “FORMULATIONS FOR ADM[…], norLAAM AND dinorLAAM AND METHODS OF THEIR USE TO TREAT OPIOID USE DISORDER” (VIRGINIA COMMONWEALTH UNIVERSITY, priority 2022, published 2025).

The conditions of data set [1]: weak base; cited from earlier work.
The conditions of data set [2]: humans; cited from earlier work.
For data set [3] the following is noted: rats; cited from earlier work.
Data set [4] in a line: Plasma pharmacokinetics of LAAM in rabbits (intravenous, oral, buccal). To be noted: rabbit. As to the method: Twenty-four New Zealand white rabbits of mixed gender (weighing 3.6-4.0 kg) were obtained from ENVIGO and used in this study. […] All animal protocols were approved by the Institutional Animal Care and Use Committee at the Virginia Commonwealth University. […] Rabbits were anesthetized following an intramuscular injection of ketamine (50 mg/kg) and xylazine (5-7 mg/kg), followed by applying buccal films (1 mg/kg) into the buccal pouch. […] An oral solution (1 mg/kg) was administered by an oral syringe (1 mL), followed by an injection of ketamine/xylazine. After anesthesia, a catheter was inserted via the marginal ear vein for blood collection before dosing and at pre-determined time points (30 min before and at 5, 15, 30 min, and 1, 2, 3, 4, 8, 12, 24, 48, 72, 96, and 120 h) following administration. Eppendorf tubes contained EDTA (0.5 M) to prevent blood coagulation. Blood samples were placed on ice immediately following the collection for no longer than 5 min, plasma was separated by centrifugation (3000 g, at 0° C. for 3 min) and stored at −80° C. until analysis. At the endpoint (120 h), all animals were sacrificed. Urine, interest tissues (buccal mucosa, kidney, spleen, liver, gallbladder, muscle, brain, and spinal cord, mesenteric fat, perirenal fat, neck fat, inguinal fat) were harvested and stored at −80° C. until analysis. The buccal mucosa tissues and control in contact with fiber film formulations were collected for histopathological analysis using H&E staining. […] Non-compartmental analysis (NCA) was applied to calculate pharmacokinetic parameters derived from plasma concentration-time profiles. The absolute bioavailability was subsequently calculated by comparing respective AUCs, as shown by the following equation: […]

The conditions of data set [5]: high permeability according to the FDA; cited from earlier work.
Setting [6] is: both, New Zealand white, plasma, iv, 0.8 mg/kg.
[7] abbreviates: both, New Zealand white, plasma, po, 1 mg/kg.

The term pKa denotes the negative logarithm of the acid dissociation constant. A word on the AUC(0-inf): it is total exposure, with the tail of the curve extrapolated. As a reminder, the AUC(0-t) is exposure summed from dosing to a finite time, without extrapolation to infinity. A high value points to more exposure. As usually defined, the Cmax is the maximum level reached in the sampled fluid or tissue. What is called Tmax is the time from dosing to the highest level. For `CC[C@H](OC(C)=O)C(C[C@H](C)N(C)C)(c1ccccc1)c1ccccc1` [LAAM, [(3S,6S)-6-(dimethylamino)-4,4-diphenylheptan-3-yl]acetate], in data set [1], the pKa is recorded as 9.87. In addition, in data set [2], the “Oral bioavailability (Foral %)” value was “approximately 50%”. Besides, in data set [3], the “Oral bioavailability (Foral %)” value is roughly 60%. Further, in data set [4] (setting [6]), the AUC(0-inf) amounted to 284 ± 94.7 ng·h/mL, the AUC(0-t) is 274 ± 91.6 ng·h/mL, the C0 came to 288 ± 133 ng/mL and the Vd was found to be 30.6 ± 6.3 L/kg. Also, in data set [4] (setting [6]), the clearance is 51.7 mL/min/kg. For the same molecule, in data set [4] (setting [7]), the AUC(0-inf) was determined as 69.5 ± 10 ng·h/mL, the AUC(0-t) was 65.7 ± 10.1 ng·h/mL, the Cmax worked out at 20.7 ± 3.4 ng/mL and the Tmax is 24 ± 12 min. Also, the “LAAM F (%), bioavailability, calculated by AUCinf” value in data set [4] (LAAM oral solution 1 mg/kg) is 19.6 ± 2.8%.

For `COCCc1ccc(OCC(O)CNC(C)C)cc1` (centres unmarked) [metoprolol], the “Permeability of model drug” value in data set [5] was 11 ×10⁻⁶ cm/s.
